# Experimental data as given in US20250388550A1, “SALTS OF AN ANTIOXIDANT AND CRYSTALLINE FORMS THEREOF” (Mironova Labs, Inc., priority 2022, published 2025).
# How the values were obtained:
# [1] = Slurry interconversion experiments of Forms A and C; format: physicochemical; settings: for Interconversion result (form): EtOH, 75° C.; for Relative thermodynamic stability of the anhydrate forms: Form A versus Form C, at the temperatures evaluated
# Procedure: The choice of solvent affects the kinetics of polymorph conversion and not the thermodynamic relationship between polymorphic forms (Gu, CH., Young, V. Jr., Grant, DJ. J. Pharm. Sci 2001; 90 (11): 1878-1890).
# Slurry interconversion experiments in ethanol (at 75° C.) and methanol (at room temperature) were still attempted to confirm the thermodynamic relationship between Forms A and C (Table 18).
# [2] = Competitive water activity trituration experiments at room temperature; format: physicochemical
# From the text: Water activity is related to relative humidity in that RH %=aw×100. Therefore, it is possible to directly relate the stability of an anhydrous/hydrate system in slurry experiments to solid state stability.
# (§1) The effect of relative humidity (RH) and water activity (aw) on the hydration state of L-Ergothioneine was investigated through both static exposure to different relative humidity (Table 17 and Table 18) and competitive water activity trituration experiments at room temperature (Table 20). The resulting solids were characterized by XRPD. These experiments were used to establish the relative humidity ranges for form stability of the thermodynamically stable anhydrate Form A and Form B Dihydrate. The critical water activity between the anhydrate and the dihydrate falls between 0.76 and 0.85 aw. This range is consistent with the DVS isotherms for both Forms A and C Anhydrate.
# [3] = DVS moisture sorption/desorption isotherm; format: physicochemical
# Procedure: Moisture sorption/desorption data were collected on a VTI SGA-100 Vapor Sorption Analyzer. Samples were not dried prior to analysis. Sorption and desorption data were collected over a range from 5% to 95% RH at 10% RH increments under a dry air purge. The equilibrium criterion used for analysis was less than 0.0100% weight change in 5 minutes with a maximum equilibration time of 3 hours with a 2-minute data logging interval. Data were not corrected for the initial moisture content of the samples.
# [4] = Physical stability assessment at controlled relative humidity, form by XRPD; format: physicochemical; settings: RT, 22 days
# From the text: Consistent with the DVS result, the critical water activity between the anhydrate and the dihydrate was tentatively determined to fall between 0.76 and 0.85 aw, above which hydration to Form B Dihydrate will occur. This is also consistent with the physical stability assessment at 33, 75, and 95% RH for 22 days; Form A Anhydrate remained Form A below the critical water activity, while hydration to Form B Dihydrate occurred above (Table 16).
# as §1
# [5] = Trituration of Form C in aqueous methanol below the critical water activity; format: physicochemical; settings: 10:90 water/MeOH, aw 0.29, RT, 5 d
# Procedure: Although the dihydrate of L-Ergothioneine can form in the presence of water, aqueous methanol mixtures were utilized to enhance solubility. To avoid the dihydrate, the aqueous mixtures were prepared below the critical water activity of its formation. Form C was triturated in the aqueous mixtures and monitored for conversion to Form A by XRPD after 5 days (Table 19).
# [6] = Hygroscopicity inferred from TGA weight loss; format: physicochemical; settings: weight loss likely volatilization of moisture
# Procedure: Thermogravimetric (TG) analyses were performed using a Mettler-Toledo TGA/DSC3+ analyzer. Temperature and enthalpy adjustments were performed using indium, tin, and zinc, and then verified with indium. The balance was verified with calcium oxalate. The sample was placed in an aluminum pan. The pan was hermetically sealed, the lid pierced, and the pan was then inserted into the TG furnace. A weighed aluminum pan configured as the sample pan was placed on the reference platform. The furnace was heated under nitrogen. Samples were analyzed from 25° C. to 350° C. at 10° C./min. Thermogravimetric analyses typically experience a period of equilibration at the start of each analysis, indicated by red parentheses on the thermograms. The starting temperature for relevant weight loss calculations is selected at a point beyond this region (typically above 35° C.) for accuracy. DSC analysis on this instrument is less sensitive than on the DSC3+ differential scanning calorimeter. Therefore, in certain embodiments, samples with sufficient solids were analyzed by both instruments and the TGA thermogram from Mettler-Toledo TGA/DSC3+ analyzer is reported below.
# The final endotherm with an onset of 234° C. is likely from concomitant melt and decomposition.
# Thermal decomposition (FIG. 20), which caused the material to expand out of the pan, was evident above this temperature.
# physchem = format: physicochemical; settings: 60 °C, organic solvent or mixture
# Procedure: The approximate solubility of the L-Ergothioneine Form A/B mixture in various solvents was determined (Table 2).
# [7] = From the text: It cannot be predicted in advance whether a compound exists in one or more solid forms, or whether the properties of the solid form are advantageous for manufacturing and pharmaceutical formulation.
# [8] = Observation of isolated solid on removal from nitrogen stream; format: physicochemical; settings: upon removal from the nitrogen stream
# Procedure: L-Ergothioneine calcium chloride Material A was obtained by heating a slurry of 173.9 mg of L-Ergothioneine Form A/B in 1 mL of water to 65° C. A faint turbid solution was afforded with the addition of 110.5 mg of calcium chloride to the slurry. The sample was refrigerated for 3 days and became clear. The clear solution was evaporated to dryness under nitrogen.
compound,measurement,setting,value
"C[N+](C)(C)C(Cc1cnc(S)[nH]1)C(=O)[O-] [Forms A and C, L-Ergothioneine]",Interconversion result (form),[1]; 14 days,A + C
same,Interconversion result (form),[1]; 28 days,A + C (minor)
same,Water activity experiment result (form),"[2]; 15:85 water/MeOH, aw 0.39, RT, 8 d",B + A + C + anotherform
same,Water activity experiment result (form),"[2]; 20:80 water/MeOH, aw 0.47, RT, 8 d",B + A + C
same,Water activity experiment result (form),"[2]; 20:80 water/MeOH, aw 0.47, RT, 14 d",A + B
same,Water activity experiment result (form),"[2]; 70:30 water/MeOH, aw 0.86, RT, 13 d",B (PO)
same,Water activity experiment result (form),"[2]; solvent, aw and method cells empty, lines below 50:50 water/MeOH, aw 0.76",A + B + anotherform
"C[N+](C)(C)C(Cc1cnc(S)[nH]1)C(=O)[O-] [L-Ergothioneine Form A Anhydrate, L-Ergothioneine, reference compound]",Relative thermodynamic stability of the anhydrate forms,[1]; listed as Form A,more thermodynamically stable form
same,Hygroscopicity (DVS),[3]; above 85% RH,significant hygroscopicity
same,Hygroscopicity (DVS),"[3]; from 5 to 85% RH, listed as Form A",low hygroscopicity
"C[N+](C)(C)C(Cc1cnc(S)[nH]1)C(=O)[O-] [L-Ergothioneine Form B Dihydrate, L-Ergothioneine]","Physical stability, resulting form",[4]; 33% RH,partially dehydrate to a small quantity of both Forms A and C Anhydrates
same,"Physical stability, resulting form","[4]; 75% RH, listed as Form B Dihydrate",sustained
same,"Physical stability, resulting form","[4]; 95% RH, listed as Form B Dihydrate",sustained
"C[N+](C)(C)C(Cc1cnc(S)[nH]1)C(=O)[O-] [L-Ergothioneine Form C Anhydrate, L-Ergothioneine]","Physical stability, resulting form",[4]; 75% RH,Form C
same,"Physical stability, resulting form",[4]; 95% RH,Form B
same,Relative thermodynamic stability of the anhydrate forms,[1]; listed as Form C Anhydrate,thermodynamically metastable relative to Form A
same,Weight loss upon equilibration,[3]; at 5% RH,0.3 wt %
same,Water gain equivalent,[3]; at 95% RH,more than 1.5 mol/mol
same,Weight gain during sorption cycle,"[3]; at 95% RH, equilibrium not achieved",more than 10.9 wt %
same,Hygroscopicity (DVS),"[3]; from 5 to 85% RH, listed as Form C",limited hygroscopicity
same,"Complete desorption, equivalent loss of water",[3]; once reaching 5% RH,1 mol/mol
same,Recovered material after DVS by XRPD,[3]; post-DVS,"mixture of Form C Anhydrate, Form B Dihydrate, and another form"
same,Weight loss on desorption cycle,[3]; until reaching 75% RH,5.5 wt %
same,Weight gain during sorption cycle,[3]; up through 85% RH,approximately 0.9 wt %
same,Trituration result (form by XRPD),[5],A + C (minor)
"C[N+](C)(C)C(Cc1c[nH]c(=S)[nH]1)C(=O)O.O=S(=O)([O-])O [L-Ergothioneine Sulfate Form A, L-Ergothioneine sulfate]",Hygroscopicity suggested by TGA weight loss,[6],hygroscopic
"C[N+](C)(C)C(Cc1cnc(S)[nH]1)C(=O)[O-] [L-Ergothioneine mixture, L-Ergothioneine]",solubility,physchem,< 2000 µg/mL
C[N+](C)(C)C(Cc1cnc(S)[nH]1)C(=O)[O-] [L-Ergothioneine phosphoric acid],Solubility in polar protic solvents,[7],low solubility
same,Hygroscopicity suggested by TGA weight loss,[6],hygroscopic
L-Ergothioneine calcium chloride,Deliquescence,[8],appeared to deliquesce
